Source: patent US20250032375A1, “SOLVENT MIXTURES COMPRISING 1,3-BUTYLENE GLYCOL AND TRIETHYL-CITRATE” (Givaudan SA, priority 2022, published 2025)
Structures can show the parent of a compound that is named as a salt. Where two headings read alike, the source gives them in different places. Each block holds one compound with its values, some of them ahead of it.

What was measured:
[1] = Miscibility and stability in matrix and application; details: for miscibility and stability properties compared to DPG: fragrance oil matrix and Eau de Toilette (at 10%)
From the text: The miscibility and stability of the solvent mixture of the present invention was compared with those of DPG and the pure mixture ingredients. The miscibility with isopropyl myristate (IPM) and ethylene brassylate (EB) mimics the miscibility with a fragrance oil matrix.

[2] = Solubility by absorption spectrometry (absorbance at 600 nm, 1 cm path)
Procedure: (§1) If the sample is dissolved, there is low absorbance (close to zero), any turbidity (>0.5) indicates incomplete solution.

[3] = Solubility by visual inspection
Procedure: as §1

[4] = Vanillin solubility in other solvents; assay type: physicochemical
[5] = Solubility and storage stability of fragrance ingredients in TEC/1,3-butylene glycol 80/20 mixture; assay type: physicochemical; details: for solubility: t = 0, 5 min. heating at 50° C. + 8-10 hrs. stirring at room temperature
Procedure: In the table above, the solubility of single ingredients solubility has been summarized. […] Furthermore, the storage stability at 5 and 60° C. for 14 days have been tested.

[6] = 10% in EDT premix, 14 days 5° C.
[7] = 10% in EDT premix, t = 0 at room temperature
[8] = 10% in 1,3-butylene glycol (*), sample heated and cooled down to room temperature
[9] = 10% in 1:1 MIX (*), sample heated and cooled down to room temperature
[10] = 10% in 1:3 MIX (*), sample heated and cooled down to room temperature
[11] = 10% in 3:1 MIX (*), sample heated and cooled down to room temperature
[12] = 10% in TEC (*), sample heated and cooled down to room temperature
[13] = 1% in 1,3-butylene glycol (*), sample heated and cooled down to room temperature
[14] = 1% in 1:3 MIX (*), sample heated and cooled down to room temperature
[15] = 1% in 3:1 MIX (*), sample heated and cooled down to room temperature
[16] = 1% in TEC (*), sample heated and cooled down to room temperature

SMILES: CC(O)CCO (centres unmarked) [1,3-butylene glycol]
- miscibility and stability rating ([1]; 10% in EDT premix, 24 h UV): clear
- miscibility and stability rating [1, 6]: clear
- miscibility and stability rating [1, 7]: clear
- miscibility and stability rating ([1]; 10% in IPM, 14 days 5° C.): biphasic, hazy
- miscibility and stability properties compared to DPG [1]: show disadvantages when compared to DPG
- miscibility and stability rating ([1]; pure, 14 days 5° C.): clear

SMILES: O=c1ccc2ccccc2o1 [Coumarine Pure Crist, 1-benzopyran-2-one]
- ultrasonic bath, spectrometer [2, 8]: 0.06 AU
- ultrasonic bath, spectrometer [2, 9]: 0.05 AU
- ultrasonic bath, spectrometer [2, 10]: 0.00 AU
- ultrasonic bath, spectrometer [2, 11]: 0.02 AU
- ultrasonic bath, spectrometer [2, 12]: 0.07 AU
- visual inspection [3, 8]: soluble
- visual inspection [3, 9]: soluble
- visual inspection [3, 10]: soluble
- visual inspection [3, 11]: soluble
- visual inspection [3, 12]: soluble

SMILES: CCOc1cc(C=O)ccc1O [Ethyl Vanilline, 3-Ethoxy-4-hydroxybenzaldehyde]
- ultrasonic bath, spectrometer (30 %): 0.00 AU
- ultrasonic bath, spectrometer (40 %): 0.04 AU

SMILES: Cc1occc(=O)c1O [Maltol Lg Crist, 3-hydroxy-2-methyl pyran-4-one]
- ultrasonic bath, spectrometer [2, 13]: solid
- ultrasonic bath, spectrometer [2, 14]: 0.02 AU
- ultrasonic bath, spectrometer [2, 15]: 0.02 AU
- ultrasonic bath, spectrometer [2, 16]: solid
- visual inspection [3, 13]: non soluble
- visual inspection [3, 14]: soluble
- visual inspection [3, 15]: soluble
- visual inspection [3, 16]: non soluble

SMILES: N#CC(=C1CCCCC1)c1ccccc1 [Peonile, 2-cyclohexylidene-2-phenylacetonitrile]
- ultrasonic bath, spectrometer ([2]; 10% in 1,3-butylene glycol): >2 AU
- ultrasonic bath, spectrometer ([2]; 10% in 1:1 MIX): 0.00 AU
- ultrasonic bath, spectrometer ([2]; 10% in 1:3 MIX): 0.02 AU
- ultrasonic bath, spectrometer ([2]; 10% in 3:1 MIX): 0.02 AU
- ultrasonic bath, spectrometer ([2]; 10% in TEC): 0.02 AU
- visual inspection ([3]; 10% in 1,3-butylene glycol): non soluble
- visual inspection ([3]; 10% in 1:1 MIX): soluble
- visual inspection ([3]; 10% in 1:3 MIX): soluble
- visual inspection ([3]; 10% in 3:1 MIX): soluble
- visual inspection ([3]; 10% in TEC): soluble

Further lines, results first:

- miscibility and stability rating ([1]; 3% in EDT premix, 24 h UV): clear
- miscibility and stability rating ([1]; 3% in EDT premix, 14 days 5° C.): clear
- miscibility and stability rating ([1]; 3% in EDT premix, 14 days −10° C.): clear
- miscibility and stability rating ([1]; 3% in EDT premix, t = 0 at room temperature): clear
- miscibility and stability rating ([1]; 5% in EDT premix, 24 h UV): clear
- miscibility and stability rating ([1]; 5% in EDT premix, 14 days 5° C.): clear
- miscibility and stability rating ([1]; 5% in EDT premix, 14 days −10° C.): clear
- miscibility and stability rating ([1]; 5% in EDT premix, t = 0 at room temperature): clear
- miscibility and stability rating ([1]; 10% in EB, 24 h UV): clear
- miscibility and stability rating ([1]; 10% in EB, 14 d 60° C.): clear
- miscibility and stability rating ([1]; 10% in EB, 14 days 5° C.): clear
- miscibility and stability rating ([1]; 10% in EDT premix, 24 h UV): clear
- miscibility and stability rating ([1]; 10% in EDT premix, 14 d 60° C.): clear
- miscibility and stability rating [1, 6]: clear
- miscibility and stability rating ([1]; 10% in EDT premix, 14 days −10° C.): clear
- miscibility and stability rating [1, 7]: clear
- miscibility and stability rating ([1]; 10% in IPM, 24 h UV): clear
- miscibility and stability rating ([1]; 10% in IPM, 14 d 60° C.): clear
- miscibility and stability rating ([1]; 10% in IPM, 14 days 5° C.): clear
- miscibility and stability properties compared to DPG [1]: show disadvantages when compared to DPG
SMILES: CCOC(=O)CC(O)(CC(=O)OCC)C(=O)OCC [TEC, Triethyl citrate]

- amount that can be dissolved ([4]; in DPG, when saturation occurs): about 20%
- amount that can be dissolved ([4]; in triethylcitrate (TEC)): less than 15%
- solubility ([5]; 15% in MIX 80/20): Solubility OK
- solubility ([5]; 20% in MIX 80/20): Solubility OK
- solubility ([5]; 25% in MIX 80/20): Solubility OK
- amount that can be dissolved ([5]; in the solvent mixture of the present invention): at least 25%
SMILES: COc1cc(C=O)ccc1O [vanillin, 4-hydroxy-3-methoxybenzaldehyde]
